Assay results published in US5866570A, “Treatment of vascular leakage and related syndrome such as septic shock by administration of metalloproteinase inhibitors” (Wisconsin Alumni Research Foundation, priority 1994, dated 1999).
Converted amounts (≈) assume the structure as drawn.

How the values were obtained:
[1] = biological target: T1, E. coli recombinant human 72 kD collagenase type IV (MMP-2), pAPMA activated (Homo sapiens, UniProt P08253); assay: gelatinase assay (3H-gelatin degradation), Example 9; type: biochemical; conditions: 100 ng activated enzyme, 4 hrs preincubation with inhibitor at 37° C., 3H-gelatin substrate; read-out: IC50, inhibition of collagenase type IV gelatinase activity
T1 construct: made in house; host or cells: E. coli
T1 sequence (P08253 110-660): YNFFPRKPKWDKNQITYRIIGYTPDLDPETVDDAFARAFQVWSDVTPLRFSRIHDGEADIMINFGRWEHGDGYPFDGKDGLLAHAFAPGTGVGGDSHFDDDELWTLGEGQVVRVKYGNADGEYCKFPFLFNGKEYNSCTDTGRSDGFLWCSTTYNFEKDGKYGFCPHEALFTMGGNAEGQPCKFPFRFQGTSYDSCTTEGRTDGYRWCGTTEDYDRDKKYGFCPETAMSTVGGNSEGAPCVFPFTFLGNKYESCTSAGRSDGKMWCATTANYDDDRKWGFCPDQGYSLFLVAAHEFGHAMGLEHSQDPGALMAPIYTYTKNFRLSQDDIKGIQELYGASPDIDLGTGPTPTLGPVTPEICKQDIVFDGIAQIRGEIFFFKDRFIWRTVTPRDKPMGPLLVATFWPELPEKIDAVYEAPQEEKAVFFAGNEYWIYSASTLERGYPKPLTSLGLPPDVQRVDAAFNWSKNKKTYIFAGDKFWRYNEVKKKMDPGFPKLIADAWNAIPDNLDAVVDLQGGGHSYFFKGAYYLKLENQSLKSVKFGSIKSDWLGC
From the text: Type IV collagenases are highly efficient in digesting gelatin. Inhibition of the gelatinase activity of human recombinant collagenase type IV was used as an initial assay for testing the bis(dioxopiperazine)s. The recombinant 72 kD collagenase IV used in the gelatinase assays was made in E. coli from a cDNA insert obtained from Dr. William Stetler-Stevenson (NCI). The protein runs at 72 kD on SDS-PAGE, has gelatinolytic activity in zymogram, is activated by pAPMA, is precipitated by a monoclonal anti-peptide antibody to the pro-region of the 72 kD enzyme, and is inhibited by TIMP-2. Rat tail ^3 H-collagen I (Dupont-NEN) is denatured to become gelatin by heating at 60° C. for 20 min. E. coli recombinant human 72 kD collagenase type IV is activated by incubation with 1 mM pAPMA for 1 hr. at 37° C. 100 ng of activated enzyme is added to each tube containing 50 mM Tris-HCl pH 7.5, 5 mM CaCl2 and 0.005% Brij-35 and pre-incubated with inhibitor or solvent control for 4 hrs. at 37° C. in a total of 25 μl. 10,000 cpm of ^3 H-gelatin substrate in 30 μl is added (final volume of 55 μl per sample) and the reaction mixture is incubated at 37° C. for 2 to 16 hrs. […] Enzyme activity is calculated from the radioactivity in the supernatant and activity of the compounds expressed as percent solvent control.

retired bred BALB/C mice = assay: septic shock induced by i.v. endotoxin (E. coli 026:B6); type: in vivo; conditions: razoxane 100 μg/g i.p. before 200 μg endotoxin i.v.; heparin
Protocol: Two retired bred BALB/C mice were injected with 100 μg of endotoxin and 3 units of heparin i.v., followed by 10 units heparin subcutaneously. Another two mice were treated the same except with 200 μg of endotoxin. All died within 24 h.
Six retired bred BALB/C mice were treated with razoxane (100 μg/g body weight i.p.). The mice were then injected with 200 μg of endotoxin and 3 units of heparin i.v., followed by 10 units heparin subcutaneously.

OVCAR-3 cells = assay: OVCAR-3 human ovarian cancer model in nude mice; type: in vivo; conditions: 30 mg/kg i.p., one dose/day 5 consecutive days/week, from 24 hours before 20 million cells i.p.
Protocol: Dose and Schedule--Razoxane was suspended in sterile 1% CMC (carboxymethyl cellulose) 0.9% NaCl by sonication in a water bath. Mice received 30 mg/kg drug in 10 μl/g CMC per i.p. dose beginning 24 hours prior to cell implantation. Each mouse received one dose/day i.p. for 5 consecutive days with 2 days of recovery. Treatment continued until mouse death or sacrifice.
OVCAR-3 cells--were received from Dr. Tom Hamilton and are maintained by passage of ascites directly from the mouse. The ascites is harvested from the mouse by rinsing the peritoneal cavity with HBSS, treated briefly with Dispase to dissociate clumps, centrifuged, counted, resuspended in HBSS and 20 million cells injected i.p. per mouse.
Mice--HSD nu/nu female mice 6 weeks old (18-22 g) are weighed, tagged with a metal ear clip, and randomized for treatment or control groups. Mice are weighed daily and the dose of drug or vehicle is calculated.
Visible ascites appears around day 14 with small solid tumors at the sites of injections. The mice swell with hemorrhagic ascites prior to death. At necropsy mice contain massive invasive carcinomatosis obliterating most of the normal organs of the peritoneal cavity with significant metastasis to the lungs. A 25% increase in mean/median survival time with drug treatment is considered significant in this model.

S180 tumors = conditions: cited from earlier work
mouse-embryo fibroblasts = conditions: cited from earlier work
[2] = at 25° C.; cited from earlier work
V-79A fibroblasts = conditions: tissue culture; cited from earlier work

CC1(C)O[C@H]2C[C@H](N3CC(=O)NC(=O)C3)[C@@H](N3CC(=O)NC(=O)C3)C[C@@H]2O1 (relative stereo) [Compound 80, (3aα, 5β, 6α, 7aβ)-4,4'-(hexahydro-2,2-dimethyl-1,3-benzodioxole-5,6-diyl)bis(2,6-piperazinedione)]
IC50 [1]: 8 µM

CC(CN1CC(=O)NC(=O)C1)N1CC(=O)NC(=O)C1 (centres unmarked) [razoxane]
mice surviving more than 24 h (retired bred BALB/C mice): Two out of six | difference in the survival time between treated and control mice (OVCAR-3 cells): > 33% | inhibition of S180 tumors (S180 tumors; 5 doses at 30 mg/kg): 93% | calculated ratio of maximum tolerated dose to the dose required for 90% inhibition of S180 tumor growth (S180 tumors; therapeutic index in vivo): 9.8 | IC50, inhibition of [3H]thymidine incorporation (mouse-embryo fibroblasts): 0.5 µg/mL | solubility in water [2]: 3000 µg/mL (≈ 11.2 mM) | cytotoxic activity (V-79A fibroblasts): has cytoxic activity
